Results on 19 compounds are retold here after article PMC6534212, “Synthesis and biological evaluation of 3–(4-aminophenyl)-coumarin derivatives as potential anti-Alzheimer’s disease agents” (Journal of Enzyme Inhibition and Medicinal Chemistry, 2019).

The structures appear in SMILES notation. Entries after “also recorded” stand apart in the source; their conditions may differ.

For test [1], the target named is T1, BuChE from equine serum (Equus caballus, UniProt P81908).
T1 construct: Butyrylcholinesterase (BuChE, from equine serum, Aladdin, Shanghai, China); purchased Aladdin, Shanghai, China; host or cells: equine serum
Kind of test: biochemical. Particulars: for IC50: BuChE from equine serum, mean ± SD (n=3); for BuChE inhibitory activity (in words): verbal summary of Table 2, comparison with donepezil. It is filed as biochemical. On the procedure: (§1) In the experiment, 0.05 mol/L phosphate buffered saline (PBS) of pH 8.0 was prepared first, and then the following solutions were prepared: 1.5 mmol/L Acetylthiocholine iodide (ATChI); 0.75 mmol/L 5, 5'-Dithiobis-(2-nitrobenzoic acid) (DTNB, Sigma Aldrich, St. Louis, MO); 0.2 U/mL Acetylcholinesterase (AChE, from […], Macklin); 0.5 U/mL Butyrylcholinesterase (BuChE, from equine serum, Aladdin, Shanghai, China); 1.5 mmol/L S-Butyrylthiocholine iodide (BTChI, Sigma Aldrich, St. Louis, MO). 4% sodium dodecyl sulphate (SDS) was prepared with secondary water. […] All solutions were stored in a refrigerator at 4 °C.
(§2) The AChE/BuChE inhibitory activity of the 3–(4-aminophenyl)-coumarin derivatives was determined by the method of Ellaman[28] with slight modifications. The experiment was divided into control group, sample blank group and sample group. Take a series of test tubes, the reagents were loaded in test tubes at the dose of Table 6. After incubation at 37 °C for 20 min, quickly add 1 mL of 4% SDS to stop the reaction. […] All experiments were run in triplicate. The absorbance was determined by UV spectrophotometer, and the inhibition rate of AChE and the IC50 value of each sample were calculated according to the formula. Inhibition rate % = {[(AC−AS)−ASB]/AC} ×100%, where AC (no sample added) is the absorbance of control group; AS is the absorbance of sample group; ASB (add sample solution but no substrate ATChI added) is the absorbance of sample blank group.
The method for determining BuChE is the same as the method for measuring AChE. The sample can be added with reference to Table 6, AChE is changed to BuChE, and the substrate ATChI is changed to substrate BTChI. The order of loading and the amount of loading are the same as Table 6. The absorbance was determined by UV spectrophotometer, and the inhibition rate of BuChE and the IC50 value of each sample were calculated according to the formula. The formula used is the same as AChE.

In test [2] the target is T2, AChE from Electrophorus electricus (Electrophorus electricus, UniProt O42275).
T2 construct: purchased Macklin
Kind of test: biochemical. It counts as biochemical. Particulars: for IC50: AChE from Electrophorus electricus, mean ± SD (n=3); for Selectivity AChE/BuChE (in words): verbal summary of SI; for AChE inhibitory activity (in words): verbal summary of Table 2. The procedure:
as §1, §2

For test [3], the system named is aluminium trichloride-induced zebrafish juveniles. Nature of the test: Effects of compounds on aluminium trichloride-induced behavioural inhibition of zebrafish juveniles (Zebrobox). Particulars: for Total movement distance: mean ± SE, n=8.
Procedure: The most suitable modelling concentrations were chosen, and then the effect of the compounds on the behaviour of the aluminium trichloride-induced zebrafish juveniles was explored.
The 72 hpf zebrafish were placed in a petri dish, and the normal developing juveniles were selected under a microscope in a 12-well plate. […] The continuous drug solution was exposed for 3 days. […] Each well was juvenile fish developed to 72 h post-exposure (hpe) and added 0.5 mL of culture water and 8 juveniles were set in each experimental group. The well plate was placed in the dark box of the zebrafish behaviour analysis system. The fish was first adapted to 10 min at the beginning of the experiment. The trajectories of the juveniles in each group were collected using zeblab software for 10 min, recorded every 5 min, and exported by software. Then calculate the total distance of each group of zebrafish juveniles.
The zebrafish with 72 hpf after fertilisation is placed in a petri dish. Under normal conditions, the normal developing juvenile fish are selected in a 12-well plate, and 15 juveniles per hole are set. Control group (0.5% DMSO), model group (5.0 mg/L AlCl3), 5.0 mg/L AlCl3 + test compound 5 μg/mL group, 5.0 mg/L AlCl3 + test compound 10 μg/mL group, 5.0 mg/L AlCl3 + test compound 50 μg/mL group, 5.0 mg/L AlCl3 + test compound 100 μg/mL group, three duplicate wells were set at each concentration. After the administration, the zebrafish was placed in a constant temperature incubator at 28 °C to continue the culture for 3 days. Changing the liquid (aquaculture water) every 24 h and removing dead young fish.

T1 sequence (P81908 whole entry): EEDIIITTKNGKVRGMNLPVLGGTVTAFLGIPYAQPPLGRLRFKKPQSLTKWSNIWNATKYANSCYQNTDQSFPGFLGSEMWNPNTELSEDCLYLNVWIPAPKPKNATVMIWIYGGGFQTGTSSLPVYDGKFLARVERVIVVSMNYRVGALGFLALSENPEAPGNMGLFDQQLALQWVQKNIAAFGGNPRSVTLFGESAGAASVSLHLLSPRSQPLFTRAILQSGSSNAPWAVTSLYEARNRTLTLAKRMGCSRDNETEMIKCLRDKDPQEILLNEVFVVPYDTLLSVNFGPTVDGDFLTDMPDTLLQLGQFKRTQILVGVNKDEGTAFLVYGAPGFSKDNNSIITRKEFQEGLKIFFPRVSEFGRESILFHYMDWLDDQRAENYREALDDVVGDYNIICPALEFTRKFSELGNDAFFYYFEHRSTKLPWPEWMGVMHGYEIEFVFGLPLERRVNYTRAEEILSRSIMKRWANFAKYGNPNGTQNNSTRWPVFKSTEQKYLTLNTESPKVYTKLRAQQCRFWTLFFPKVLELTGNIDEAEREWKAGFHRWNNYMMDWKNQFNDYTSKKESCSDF
T2 sequence (O42275 24-633): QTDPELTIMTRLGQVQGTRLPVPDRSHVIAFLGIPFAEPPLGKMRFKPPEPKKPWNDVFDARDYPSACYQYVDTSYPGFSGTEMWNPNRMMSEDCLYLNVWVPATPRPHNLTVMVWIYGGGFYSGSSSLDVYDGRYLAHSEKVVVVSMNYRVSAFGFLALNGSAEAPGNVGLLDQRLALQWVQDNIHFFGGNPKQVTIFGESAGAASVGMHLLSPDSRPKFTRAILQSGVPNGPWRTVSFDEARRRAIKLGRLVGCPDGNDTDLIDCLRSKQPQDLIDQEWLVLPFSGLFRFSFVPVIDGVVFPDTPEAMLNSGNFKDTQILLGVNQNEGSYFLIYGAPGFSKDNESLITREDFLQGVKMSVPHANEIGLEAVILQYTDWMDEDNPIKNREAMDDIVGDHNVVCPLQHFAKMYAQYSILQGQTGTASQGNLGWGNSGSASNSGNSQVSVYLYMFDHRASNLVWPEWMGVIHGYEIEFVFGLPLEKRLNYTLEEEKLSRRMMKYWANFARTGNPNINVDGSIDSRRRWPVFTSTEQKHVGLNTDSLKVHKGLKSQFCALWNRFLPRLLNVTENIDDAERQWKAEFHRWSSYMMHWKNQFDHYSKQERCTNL

`O=C(Nc1ccc(-c2cc3ccc(O)cc3oc2=O)cc1)c1cccc(F)c1` [Compound 4a, 3-[4-(3-fluoro-benzoylamino)-phenyl]-7-hydroxy-coumarin]: the 50% inhibitory concentration (IC50) in test [1] worked out at 3.89 ± 0.955 µM. Besides, in test [2], the IC50 was over 50 µM, the “Selectivity AChE/BuChE (in words)” value is given as “highly selective for BuChE” and the “AChE inhibitory activity (in words)” value was “no inhibitory activity”.

Consider `O=C(Nc1ccc(-c2cc3ccc(O)cc3oc2=O)cc1)c1ccc(F)cc1` [Compound 4b, 3-[4-(4-fluoro-benzoylamino)-phenyl]-7-hydroxy-coumarin], for which, in test [1], the midpoint of inhibition, the IC50, lay at 2.44 ± 0.035 µM and the “BuChE inhibitory activity (in words)” value was “better than donepezil”. For the same compound, in test [2], the IC50 is over 50 µM, the “SI: selectivity index (IC50 BuChE/IC50 AChE)” value (from here on “SI: selectivity index”) is given as under 0.050, the “Selectivity AChE/BuChE (in words)” value is “highly selective for BuChE” and the “AChE inhibitory activity (in words)” value is reported as “no inhibitory activity”.

The compound `Cc1ccc(C(=O)Nc2ccc(-c3cc4ccc(O)cc4oc3=O)cc2)cc1` [Compound 4c, 3-[4-(4-methyl-benzoylamino)-phenyl]-7-hydroxy-coumarin] had an IC50 in test [1] of 15.6 ± 1.82 µM. In test [2], the IC50 was over 50 µM and the “AChE inhibitory activity (in words)” value is recorded as “no inhibitory activity”.

Take `O=C(Nc1ccc(-c2cc3ccc(O)cc3oc2=O)cc1)c1ccc(CCl)cc1` [Compound 4d, 3-[4-(4-chloromethyl-benzoylamino)-phenyl]-7-hydroxy-coumarin]: half-maximal inhibition in test [1] (IC50) was put at 8.9 ± 1.18 µM. In test [2], the IC50 came to 47.2 ± 3.57 µM and the “SI: selectivity index” value was determined as 0.189.

The compound `Cc1cccc(C(=O)Nc2ccc(-c3cc4ccc(O)cc4oc3=O)cc2)c1` [Compound 4e, 3-[4-(3-methyl-benzoylamino)-phenyl]-7-hydroxy-coumarin] came in with an IC50 in test [1] of 10.6 ± 0.132 µM. Moreover, in test [2], the IC50 was over 50 µM, the “SI: selectivity index” value is under 0.211 and the “AChE inhibitory activity (in words)” value is listed as “no inhibitory activity”.

As to `O=C(Nc1ccc(-c2cc3ccc(O)cc3oc2=O)cc1)c1cccc(Cl)c1` [Compound 4f, 3-[4-(3-chloro-benzoylamino)-phenyl]-7-hydroxy-coumarin], the IC50 in test [1] was found to be 2.56 ± 0.275 µM; in test [2] it was 1.94 ± 0.141 µM. Further, the “BuChE inhibitory activity (in words)” value in test [1] is recorded as “better than donepezil”. The Total movement distance in test [3] (5 mg/L compound + 5.0 mg/L AlCl3, 3 days) is on record as 205.7 ± 4.5 cm; in test [3] (10 mg/L compound + 5.0 mg/L AlCl3, 3 days), 223.2 ± 16.4 cm; in test [3] (50 mg/L compound + 5.0 mg/L AlCl3, 3 days), 236 ± 11.5 cm; in test [3] (100 mg/L compound + 5.0 mg/L AlCl3, 3 days), 244.8 ± 13.6 cm. The “Effect on behavioural inhibition of zebrafish induced by aluminium trichloride (in words)” value in test [3] (compared with the model group) was “certain therapeutic effects; also recorded: could alleviate the behavioural inhibition symptoms”. Besides, the “SI: selectivity index” value in test [2] was 1.319. For the same compound, the “AChE inhibitory activity (in words)” value in test [2] is reported as “moderate to excellent AChE inhibitory activity”.

In the case of `O=C(Nc1ccc(-c2cc3ccc(O)cc3oc2=O)cc1)c1ccccc1F` [Compound 4g, 3-[4-(2-fluoro-benzoylamino)-phenyl]-7-hydroxy-coumarin], the IC50 in test [1] amounted to 24.5 ± 0.535 µM. In test [2], the 50% inhibitory concentration (IC50) was over 50 µM, the “SI: selectivity index” value is under 0.489 and the “AChE inhibitory activity (in words)” value is reported as “no inhibitory activity”.

Consider `O=C(Nc1ccc(-c2cc3ccc(O)cc3oc2=O)cc1)c1ccc(Cl)cc1` [Compound 4h, 3-[4-(4-chloro-benzoylamino)-phenyl]-7-hydroxy-coumarin], for which, in test [1], the IC50 is 3.88 ± 0.191 µM. Besides, in test [2], the IC50 is over 50 µM, the “SI: selectivity index” value is under 0.078, the “Selectivity AChE/BuChE (in words)” value is “highly selective for BuChE” and the “AChE inhibitory activity (in words)” value is recorded as “no inhibitory activity”.

For the compound `Cc1cc(C)cc(C(=O)Nc2ccc(-c3cc4ccc(O)cc4oc3=O)cc2)c1` [Compound 4i, 3-[4-(3,5-dimethyl-benzoylamino)-phenyl]-7-hydroxy-coumarin], in test [1], the midpoint of inhibition, the IC50, lay at 2.26 ± 0.225 µM and the “BuChE inhibitory activity (in words)” value is reported as “better than donepezil”. In addition, in test [2], the concentration for half-maximal inhibition (IC50) is over 50 µM, the “SI: selectivity index” value is under 0.045, the “Selectivity AChE/BuChE (in words)” value was “highly selective for BuChE” and the “AChE inhibitory activity (in words)” value is on record as “no inhibitory activity”.

On to `COc1cccc2cc(-c3ccc(NC(=O)c4cccc(Cl)c4)cc3)c(=O)oc12` [Compound 4n, 3-[4-(3-chloro-benzoylamino)-phenyl]-8-methoxy-coumarin], for which, in test [1], it took 0.951 ± 0.159 µM to reach half-maximal inhibition (IC50) and the “BuChE inhibitory activity (in words)” value is given as “better than donepezil”. Also, in test [2], the IC50 was over 50 µM and the “SI: selectivity index” value is recorded as under 0.020.

For the compound `COc1cccc2cc(-c3ccc(NC(=O)c4cccc(C)c4)cc3)c(=O)oc12` [Compound 4o, 3-[4-(3-methyl-benzoylamino)-phenyl]-8-methoxy-coumarin], in test [1], the IC50 is over 50 µM. Further, in test [2], the midpoint of inhibition, the IC50, lay at 8.26 ± 0.581 µM; the “SI: selectivity index” value was over 6.054; the “Selectivity AChE/BuChE (in words)” value is “highly selective for AChE”; the “AChE inhibitory activity (in words)” value is on record as “moderate to excellent AChE inhibitory activity”.

On to `COc1cccc2cc(-c3ccc(NC(=O)c4ccccc4F)cc3)c(=O)oc12` [Compound 4p, 3-[4-(2-fluoro-benzoylamino)-phenyl]-8-methoxy-coumarin], for which the IC50 turned out to be 16 ± 0.475 µM in test [1] and 48.9 ± 2.32 µM in test [2]. In addition, the “SI: selectivity index” value in test [2] is given as 0.326.

On to `COc1ccccc1C(=O)Nc1ccc(-c2cc3cccc(OC)c3oc2=O)cc1` [Compound 4q, 3-[4-(2-methoxy-benzoylamino)-phenyl]-8-methoxy-coumarin], for which the IC50 in test [1] is over 50 µM. Besides, in test [2], 48.2 ± 3.13 µM corresponded to half-maximal inhibition (IC50) and the “SI: selectivity index” value was over 1.037.

Take `O=C(Nc1ccc(-c2cc3ccc(O)c(O)c3oc2=O)cc1)c1ccc(CCl)cc1` [Compound 4s, 3-[4-(4-Chloromethyl-benzoylamino)-phenyl]-7,8-dihydroxy-coumarin]: the IC50 in test [1] is over 50 µM. In test [2], the IC50 is 48.2 ± 2.69 µM and the “SI: selectivity index” value was over 1.037.

In turn, `COc1cccc2cc(-c3ccc(NC(=O)c4ccco4)cc3)c(=O)oc12` [Compound 5b, 3-[4-(furan-2-formylamino)-phenyl]-8-methoxy-coumarin] registered an IC50 in test [1] of 4.62 ± 0.055 µM. In test [2], the midpoint of inhibition, the IC50, lay at 47.1 ± 1.59 µM and the “SI: selectivity index” value was 0.098.

The compound `O=C(Nc1ccc(-c2cc3ccc(O)cc3oc2=O)cc1)c1cccc2ccccc12` [Compound 6a, 3-[4-(1-naphthoylamino)-phenyl]-7-hydroxy-coumarin] came in with an IC50 in test [1] of over 50 µM. Besides, in test [2], the IC50 is 19.1 ± 0.981 µM and the “SI: selectivity index” value is over 2.612.

Turning to `COc1cccc2cc(-c3ccc(NC(=O)c4cccc5ccccc45)cc3)c(=O)oc12` [Compound 6b, 3-[4-(1-naphthoylamino)-phenyl]-8-methoxy-coumarin], the IC50 in test [1] and in test [2] was over 50 µM in each case.

For `O=C(Nc1ccc(-c2cc3ccc(O)cc3oc2=O)cc1)c1ccc2ccccc2c1` [Compound 7a, 3-[4-(2-naphthoylamino)-phenyl]-7-hydroxy-coumarin], in test [1], half-maximal inhibition (IC50) required 2.07 ± 0.045 µM and the “BuChE inhibitory activity (in words)” value is recorded as “better than donepezil”. The IC50 in test [2] is over 50 µM.

Take `COc1cccc2cc(-c3ccc(NC(=O)c4ccc(Cl)nc4)cc3)c(=O)oc12` [Compound 7c, 3-[4-(6-chloro-N-nicotinamide)-phenyl]-8-methoxy-coumarin]: the results for the IC50 in test [1] and in test [2] were 3.38 ± 0.342 µM and 19.2 ± 1.64 µM, respectively. In addition, the “SI: selectivity index” value in test [2] was 0.176.

As usually defined, the IC50 is the concentration that inhibits the measured activity by half.
